A short description of this data set: Solubility test in heptane and aqueous solvents at 26° C. The note with it: grams of solute dissolved in 100 g of solvent.

This note sets out measurements from patent US20090076201A1, “(METH) ACRYLOYLOXYTETRAHYDROFURANS AND PROCESS FOR PRODUCTION THEREOF” (Mitsubishi Chemical Corporation, priority 2005, published 2009).

Method: A solubility test of erythritan monomethacrylate (HOTHFMA) in aqueous solvents shown in the following table was carried out at a temperature of 26° C. In this connection, for the purpose of comparison, data on tetrahydrofurfuryl methacrylate (TFMA) and α-methacryloyl-γ-butyrolactone (GBLMA) are also shown. The numeric values in the table represent grams of individual solutes dissolved in 100 g of each solvent.

In the case of `C=C(C)C(=O)OC1COCC1O` (stereo not drawn) [HOTHFMA, 3-methacryloyloxy-4-hydroxytetrahydrofuran], the “Solubility (26° C.) in H2O” value (solvent H2O) is greater than 395 g/100 g solv. Besides, the “Solubility (26° C.) in H2O/MeOH 4/1 (wt)” value (solvent H2O/MeOH 4/1 (wt)) is reported as greater than 353 g/100 g solv. Moreover, the “Solubility (26° C.) in Heptane” value (solvent heptane) is 1.74 g/100 g solv.
